Data set [1] can be described thus: Storage of powder products at 50° C. under light shielding (Test Example 1-1). It counts as physicochemical. On the procedure:
In addition, the powder products of Examples 1-6 and 1-7 and a coenzyme Q10 itself (manufactured by Kanegafuchi Kagaku Kogyo Kabushiki Kaisha) were used as test samples, and the storage states before the beginning of storage, and after storage at 50° C. for 4 weeks or 12 weeks passed under light shielding were confirmed.

A short description of data set [2]: Bioabsorbability Test 2 of coenzyme Q10 (Test Example 1-4). It counts as in vivo. Particulars: male, SD, rat, plasma, po, 5 mg/kg; for concentration at 1 h: 1 hour after administration; for AUC: read-out: AUC1-24. On the procedure: The bioabsorbability of a coenzyme Q10 was evaluated by administering each of the coenzyme Q10-containing composition of Example 1-2 and a coenzyme Q10 itself to a rat as a test sample, sampling blood over time, and measuring the coenzyme Q10 concentration in the plasma, and the bioabsorbability was compared among the test samples.
The feeding conditions were set in 2 ways; a case where rats were allowed to take the feed ad libitum (satiation), and a case where rats were made to fast since the early-evening of the previous day of the test, and where the rats were fed again after blood sampling of 8 hours after the administration of the test sample.
The solution of distilled water in Tests A and A′ was prepared by adding the coenzyme Q10-containing composition of Example 1-2 to distilled water and mixing the mixture. The suspension of a 0.5(w/v)% aqueous CMC—Na solution in Tests B and B′ was prepared by adding a coenzyme Q10 itself to a 0.5(w/v)% aqueous CMC-Na solution and subjecting the mixture to ultrasonication.
The conditions and the like for this test are listed hereinbelow. • Rat: SD line, 7-week old, male, n=4 • Dose: The test samples calculated as 5 mg of a coenzyme Q10 per 1 kg of the body weight of a rat were administered. • Amount of administered liquid: The suspension or the solution used in Tests A, A′, B, or B′ was administered in an amount of 5 mL per 1 kg of the body weight of a rat.
Method of administration, blood sampling, time of blood sampling, processing of blood and method of quantification were same as those in the above-mentioned Test Example 1-3.

Data on one compound can be found in patent US8758743B2, “Compositions containing coenzyme Q10” (Taiyo Kagaku Co., Ltd., priority 2003, dated 2014).

Read-outs that look alike come from different tables or passages of the source.

Take `COC1=C(OC)C(=O)C(C/C=C(\C)CC/C=C(\C)CC/C=C(\C)CC/C=C(\C)CC/C=C(\C)CC/C=C(\C)CC/C=C(\C)CC/C=C(\C)CC/C=C(\C)CCC=C(C)C)=C(C)C1=O` [Coenzyme Q10 Powder, coenzyme Q10]: the “Storage State” value in data set [1] (after 4 weeks) is reported as “Melted”. Also, the “Storage State” value in data set [1] (after 12 weeks) is “Melted”. In data set [2] (fasting), this compound had a concentration at 1 h of 30 ± 10 ng/mL, a concentration at 2 h of 30 ± 10 ng/mL, a concentration at 4 h of 30 ng/mL and a concentration at 8 h of 30 ± 10 ng/mL. Besides, in data set [2] (fasting), the concentration at 24 h is 40 ± 110 ng/mL and the AUC worked out at 780 ± 300 ng·h/mL. In data set [2] (satiation), this compound displayed a concentration at 1 h of 120 ± 70 ng/mL, a concentration at 2 h of 170 ± 110 ng/mL, a concentration at 4 h of 260 ± 90 ng/mL and a concentration at 8 h of 270 ± 90 ng/mL. Also, in data set [2] (satiation), the concentration at 24 h was determined as 110 ± 40 ng/mL and the AUC came out at 4780 ± 1310 ng·h/mL.
